Measured values published in EP0352652B1, “Use of imexone as an immunosuppressive agent” (BOEHRINGER MANNHEIM GMBH, priority 1988, dated 1990).

Key:
[1] = tested on: Methylcholanthren-induzierte Fibrosarkomzellinie (MethA); experiment: Tumour growth inhibition assay (TGI), spontaneous proliferation of MethA cells, [3H]-thymidine incorporation; type: cell-based, CB6F₁-Mäusen
Description: Die Methylcholanthren-induzierte Fibrosarkomzellinie (MethA) wurde aus der eigenen Tumorzellbank erhalten und intraperitoneal in CB6F₁-Mäusen passagiert.
1 x 10⁴ MethA-Zellen werden mit der zu testenden Imexonkonzentration in DMEM-Medium über 48 h inkubiert. 3 h vor Ablauf der Inkubationszeit wird mit [³H]-Thymidin gepulst, geerntet und ausgewertet wie bei Beispiel 2 beschrieben.

[2] = tested on: Milzzellen; experiment: Concanavalin A (ConA)-induced proliferation of murine splenocytes (LTT), [3H]-thymidine incorporation; type: cell-based, CB6F₁-Mäusen; conditions: for LTT (Splenozyten, ConA) ^3H-TdR cpm (n=6) x̄: 0,5 µg/ml ConA
Description: Milzzellen (4 x 10⁵) von CB6F₁-Mäusen werden mit 0,5 µg/ml ConA in Mikrotiterplatten (Nunc GmbH, Wiesbaden, FRG) und verschiedenen Konzentrationen von Imexon in 6-fach Ansätzen für insgesamt 48 h inkubiert. 5 h vor Ablauf der Inkubationszeit werden die Kulturen mit [³H]-Thymidin gepulst und anschließend auf Glasfiberfilterplattchen mittels eines Multisample Harvester (Skatron A.S., Lier, Norwegen) geerntet. Die Filterplättchen werden getrocknet, und die Radioaktivität in einem Packard Szintillationsspektrometer bestimmt.

[3] = tested on: humaner Lymphozyten; experiment: Phytohaemagglutinin (PHA)-induced proliferation of human lymphocytes (LTT), [3H]-thymidine incorporation; type: cell-based
Description: 1 ml humanes Vollblut wird mit 500 µg PHA-Lösung (500 µg/ml) und 48 ml DMEM-Mediun verdünnt. Jeweils 200 µl dieses Ansatzes werden mit 20 µl der zu testenden Imexonkonzentration in 6-fach-Ansätzen gemischt und 4 Tage inkubiert. Nach Pulsen mit [³H]-Thymidin wird weitere 24 h inkubiert, geerntet und ausgewertet wie bei Beispiel 2 beschrieben.

[4] = tested on: humane B-Lymphozyten; experiment: BCGF-dependent proliferation of human B lymphocytes, [3H]-thymidine incorporation; type: cell-based
Description: Die Anreicherung von peripheren humanen B-Zellen und der BCGF-Proliferationsassay wurden wie folgt durchgeführt (vgl. a. Eur. J. Immun. 16, 350 (1986)): Angereicherte humane B-Lymphozyten werden zweimal gewaschen mit komplettiertem RPMI 1640 Medium (Streptomycin/Penicillin, L-Glutamin, 2-Mercaptoethanol, FCS) und auf 3 x 10⁵ Zellen/ml eingestellt. […] dieser Suspension werden jeweils pro Well in Mikrotiterplatten pipettiert. Als Pseudoantigen werden […] einer Lösung von HFCµS-IgG (300 µg/ml) zugegeben und als Wachstumsfaktor 20 µl BCGF (Cellular Products Incorporated) hinzugefügt. Dazu werden 20 µl der zu testenden Verbindung in 10facher Konzentration pipettiert. Die Kulturen werden insgesamt 140 h bei 37°, 5 % CO₂ und 95 % relativen Luftfeuchtigkeit inkubiert. 16 h vor Ablauf der Inkubationszeit wird jede Kultur mit 1 µ Ci einer [³H]-Thymidin-Lösung gepulst. Am Ende des Versuches werden die Zellen mit einem Harvester geerntet und die eingebaute Radioaktivität in einem Flüssigszintillationszähler bestimmt.

[5] = tested on: Mäusestamm MRL 1pr/1pr; experiment: Autoimmune disease model in MRL mice (lymphadenomas, antinuclear autoantibodies), prophylactic and therapeutic treatment; type: in vivo, Maus
Description: B. Synthese von antinukleâren Autoantikörpern. Zur Untersuchung des prophylaktischen Effektes von Imexon auf die Entwicklung dieser Symptome wurden 11 Wochen alte MRL Mäuse einmal täglich intraperitoneal mit den angegebenen Dosierungen Imexon und Cyclophosphamid behandelt. Dokumentiert wurden die Zahl der Lymphadenome und die Konzentration antinukleärer Antikörper. Bei der Untersuchung zur therapeutischen Potenz von Imexon wurden MRL Mäuse, […] jedes Tier mindestens ein Lymphadenom […] an Imexon und Cyclophosphamid behandelt. Die Meßparameter waren wiederum Zahl der Lymphadenome sowie Autoantikö[…].

[6] = tested on: Walker-Sarkoma 256; conditions: rats, after application of Imexon; cited from earlier work
[7] = tested on: Leukozyten; Antikörper bildende Milzzellen; conditions: after application of Imexon; cited from earlier work
[8] = relative to suppression of BCGF-induced B-cell proliferation, not or only at these concentrations
[9] = Homo sapiens, Lymphocyte, 140 h, read-out: BCGF (humane B-Lym-phozyten) %Hemmung
[10] = prophylactic, 11-week-old MRL mice, once daily intraperitoneal
[11] = therapeutic, lymphoma-bearing MRL mice (ca. 14 weeks old), once daily

## N=C1NC(=O)N2CC12 (stereo not drawn) [Imexon, 4-Imino-1,3-diazabicyclo-(3.1.0)-hexan-2-on]
[1]; Imexon 0.1 µg/ml, 48 h
  TGI (MethA) ^3H-TdR cpm (n=6) x̄: 31722 cpm
[1]; Imexon 0.3 µg/ml, 48 h
  TGI (MethA) ^3H-TdR cpm (n=6) x̄: 37593 cpm
[1]; Imexon 1 µg/ml, 48 h
  TGI (MethA) ^3H-TdR cpm (n=6) x̄: 35475 cpm
[1]; Imexon 3 µg/ml, 48 h
  TGI (MethA) ^3H-TdR cpm (n=6) x̄: 35473 cpm
[1]; Imexon 10 µg/ml, 48 h
  TGI (MethA) ^3H-TdR cpm (n=6) x̄: 21913 cpm
[1]; Imexon 30 µg/ml, 48 h
  TGI (MethA) ^3H-TdR cpm (n=6) x̄: 911 cpm
[1]; Imexon 100 µg/ml, 48 h
  TGI (MethA) ^3H-TdR cpm (n=6) x̄: 534 cpm
[1]; Meth-A, 48 h, Imexon 0.1 µg/ml, read-out: TGI (MethA) %Hemmung
  inhibition at 0.1 µg/mL: 7%
[1]; Meth-A, 48 h, Imexon 0.3 µg/ml, read-out: TGI (MethA) %Hemmung
  inhibition at 0.3 µg/mL: -11%
[1]; Meth-A, 48 h, Imexon 1 µg/ml, read-out: TGI (MethA) %Hemmung
  inhibition at 1 µg/mL: -4%
[1]; Meth-A, 48 h, Imexon 3 µg/ml, read-out: TGI (MethA) %Hemmung
  inhibition at 3 µg/mL: -4%
[1]; Meth-A, 48 h, Imexon 10 µg/ml, ** p < 0.001, read-out: TGI (MethA) %Hemmung
  inhibition at 10 µg/mL: 35%
[1]; Meth-A, 48 h, Imexon 30 µg/ml, ** p < 0.001, read-out: TGI (MethA) %Hemmung
  inhibition at 30 µg/mL: 97%
[1]; Meth-A, 48 h, Imexon 100 µg/ml, ** p < 0.001, read-out: TGI (MethA) %Hemmung
  inhibition at 100 µg/mL: 98%
[1]; Meth-A, 48 h, spontaneous proliferation, read-out: Konzentration, ab der die Spontanproliferation von MethA-Sarkomzellen signifikant unterdrückt ist
  minimal effective concentration: > 10 µg/mL
[1]; [8]
  höhere Konzentrationen, bei denen die spontane Proliferation von MethA beeinflußt wird: 10-30 fach
[2]; Imexon 0.1 µg/ml, 48 h
  LTT (Splenozyten, ConA) ^3H-TdR cpm (n=6) x̄: 109717 cpm
[2]; Imexon 0.3 µg/ml, 48 h
  LTT (Splenozyten, ConA) ^3H-TdR cpm (n=6) x̄: 134032 cpm
[2]; Imexon 1 µg/ml, 48 h
  LTT (Splenozyten, ConA) ^3H-TdR cpm (n=6) x̄: 119120 cpm
[2]; Imexon 3 µg/ml, 48 h
  LTT (Splenozyten, ConA) ^3H-TdR cpm (n=6) x̄: 118487 cpm
[2]; Imexon 10 µg/ml, 48 h
  LTT (Splenozyten, ConA) ^3H-TdR cpm (n=6) x̄: 24895 cpm
[2]; Imexon 30 µg/ml, 48 h
  LTT (Splenozyten, ConA) ^3H-TdR cpm (n=6) x̄: 2509 cpm
[2]; Imexon 100 µg/ml, 48 h
  LTT (Splenozyten, ConA) ^3H-TdR cpm (n=6) x̄: 903 cpm
[2]; Splenocyte, 48 h, Imexon 0.1 µg/ml, read-out: LTT (Splenozyten, ConA) %Hemmung
  inhibition at 0.1 µg/mL: 0%
[2]; Splenocyte, 48 h, Imexon 0.3 µg/ml, read-out: LTT (Splenozyten, ConA) %Hemmung
  inhibition at 0.3 µg/mL: -22%
[2]; Splenocyte, 48 h, Imexon 1 µg/ml, read-out: LTT (Splenozyten, ConA) %Hemmung
  inhibition at 1 µg/mL: -8%
[2]; Splenocyte, 48 h, Imexon 3 µg/ml, read-out: LTT (Splenozyten, ConA) %Hemmung
  inhibition at 3 µg/mL: -8%
[2]; Splenocyte, 48 h, Imexon 10 µg/ml, ** p < 0.001, read-out: LTT (Splenozyten, ConA) %Hemmung
  inhibition at 10 µg/mL: 77%
[2]; Splenocyte, 48 h, Imexon 30 µg/ml, ** p < 0.001, read-out: LTT (Splenozyten, ConA) %Hemmung
  inhibition at 30 µg/mL: 98%
[2]; Splenocyte, 48 h, Imexon 100 µg/ml, ** p < 0.001, read-out: LTT (Splenozyten, ConA) %Hemmung
  inhibition at 100 µg/mL: 99%
[2]; Splenocyte, 48 h, induced by ConA, read-out: Konzentrationen, bei denen die Lymphozytenproliferation signifikant gehemmt wird
  minimal effective concentration: > 10 µg/mL
[2]; [8]
  höhere Konzentrationen, bei denen die ConA-induzierte Lymphozytenproliferation beeinflußt wird: 10-30 fach
[3]; Homo sapiens, Lymphocyte, Imexon 0.1 µg/ml, read-out: LTT (Splenozyten, PHA) %Hemmung
  inhibition at 0.1 µg/mL: 5%
[3]; Homo sapiens, Lymphocyte, Imexon 0.3 µg/ml, read-out: LTT (Splenozyten, PHA) %Hemmung
  inhibition at 0.3 µg/mL: -3%
[3]; Homo sapiens, Lymphocyte, Imexon 1 µg/ml, read-out: LTT (Splenozyten, PHA) %Hemmung
  inhibition at 1 µg/mL: -11%
[3]; Homo sapiens, Lymphocyte, Imexon 3 µg/ml, read-out: LTT (Splenozyten, PHA) %Hemmung
  inhibition at 3 µg/mL: 19%
[3]; Homo sapiens, Lymphocyte, Imexon 10 µg/ml, ** p < 0.001, read-out: LTT (Splenozyten, PHA) %Hemmung
  inhibition at 10 µg/mL: 89%
[3]; Homo sapiens, Lymphocyte, Imexon 30 µg/ml, ** p < 0.001, read-out: LTT (Splenozyten, PHA) %Hemmung
  inhibition at 30 µg/mL: 99%
[3]; Homo sapiens, Lymphocyte, Imexon 100 µg/ml, ** p < 0.001, read-out: LTT (Splenozyten, PHA) %Hemmung
  inhibition at 100 µg/mL: 99%
[3]; Homo sapiens, Lymphocyte, induced by PHA, read-out: Konzentrationen, bei denen die Lymphozytenproliferation signifikant gehemmt wird
  minimal effective concentration: > 10 µg/mL
[3]; Imexon 0.1 µg/ml
  LTT (Splenozyten, PHA) ^3H-TdR cpm (n=6) x̄: 41849 cpm
[3]; Imexon 0.3 µg/ml
  LTT (Splenozyten, PHA) ^3H-TdR cpm (n=6) x̄: 45542 cpm
[3]; Imexon 1 µg/ml
  LTT (Splenozyten, PHA) ^3H-TdR cpm (n=6) x̄: 49348 cpm
[3]; Imexon 3 µg/ml
  LTT (Splenozyten, PHA) ^3H-TdR cpm (n=6) x̄: 35850 cpm
[3]; Imexon 10 µg/ml
  LTT (Splenozyten, PHA) ^3H-TdR cpm (n=6) x̄: 4724 cpm
[3]; Imexon 30 µg/ml
  LTT (Splenozyten, PHA) ^3H-TdR cpm (n=6) x̄: 573 cpm
[3]; Imexon 100 µg/ml
  LTT (Splenozyten, PHA) ^3H-TdR cpm (n=6) x̄: 585 cpm
[3]; [8]
  höhere Konzentrationen, bei denen die PHA-induzierte Lymphozytenproliferation beeinflußt wird: 10-30 fach
[4]
  Proliferation von B-Lymphozyten: dosisabhängig hemmt
[4]; [9]
  inhibition at 0.1 µg/mL: 13%
  inhibition at 0.3 µg/mL: 24%
  inhibition at 1 µg/mL: 62%
  inhibition at 3 µg/mL: 85%
  inhibition at 10 µg/mL: 90%
  inhibition at 30 µg/mL: 89%
  inhibition at 100 µg/mL: 90%
[4]; Homo sapiens, Lymphocyte, 140 h, read-out: Konzentration, bei der die BCGF-induzierte B-Zellproliferation signifikant und spezifisch supprimiert wird
  minimal effective concentration: 1 µg/mL
[4]; Imexon 0.1 µg/ml, 140 h
  BCGF (humane B-Lym-phozyten) ^3H-TdR cpm (n=6) x̄: 4847 cpm
[4]; Imexon 0.3 µg/ml, 140 h
  BCGF (humane B-Lym-phozyten) ^3H-TdR cpm (n=6) x̄: 4201 cpm
[4]; Imexon 1 µg/ml, 140 h
  BCGF (humane B-Lym-phozyten) ^3H-TdR cpm (n=6) x̄: 2096 cpm
[4]; Imexon 3 µg/ml, 140 h
  BCGF (humane B-Lym-phozyten) ^3H-TdR cpm (n=6) x̄: 831 cpm
[4]; Imexon 10 µg/ml, 140 h
  BCGF (humane B-Lym-phozyten) ^3H-TdR cpm (n=6) x̄: 574 cpm
[4]; Imexon 30 µg/ml, 140 h
  BCGF (humane B-Lym-phozyten) ^3H-TdR cpm (n=6) x̄: 617 cpm
[4]; Imexon 100 µg/ml, 140 h
  BCGF (humane B-Lym-phozyten) ^3H-TdR cpm (n=6) x̄: 562 cpm
[5]; MRL mice, once daily intraperitoneal
  Verträglichkeit: sehr guter Verträglichkeit
[5]; [10]
  Konzentration DNA spezifischer Antikörper: erniedrigt
  Zahl spontan entstehender Lymphadenome: erniedrigt
[5]; [11]
  Titer der Autoantikörper: nimmt dosisabhängig ab
  Zahl der Lymphadenome: nimmt dosisabhängig ab
[6]
  Tumorwachstum von Walker-Sarkoma 256: Hemmung des Tumorwachstums
[7]
  Leukozyten: Anstieg der Leukozyten
  Zahl der Antikörper bildenden Milzzellen: Anstieg der Zahl der Antikörper bildenden Milzzellen
